According to US20230416262A1, “TRPML MODULATORS” (Casma Therapeutics, Inc., priority 2020, published 2023):

Each compound was assayed on THP-1 cells (assay: Lamp1 lysosomal exocytosis assay). Conditions: Homo sapiens, 55 min, 55 min incubation, top dose 20 μM.
Assay type: cell-based
Protocol: For the Lamp1 lysosomal exocytosis assay, a human monocytic suspension cell line (THP-1) was used. Cells in culture should be used between a density of […] and 1.2e6/mL on the day of the assay. For each 96-well assay plate to be used, pellet 11e6 THP-1 cells at 330×g for 5 min in a 50 mL conical tube, aspirate media and resuspend in 22 mLs of RPMI 1640/10% FBS media for a final cell concentration of 5e5/mL. Prior to addition of cells to the assay plate, perform a 7 pt dilution curve using a top dose of compound at 2 mM and use a 3-fold serial dilution, the 8th point is DMSO only. Final top dose of compound in the assay was 20 μM. 2 μL of each serial dilution was transferred to a new 96-well v-bottom assay plate. 198 μL of cells (1e5 total cells/well) was prepared as above in each well of the assay plate and incubated at 37° C./5% CO2/95% RH for 55 min. After the 55 min incubation, cells were pelleted for 5 min at 4 C at 400×g in a tabletop centrifuge. The media was separated from the cell pellets in the plate. The pellets were washed using 200 μL ice cold buffer (PBS Ca^++/Mg^++ containing 2% final BSA and 80 μM final Dynasore). Cells were pelleted again at 400×g-5 min in a 4° C. tabletop centrifuge. Buffer was separated from cells. Each well was suspended in 75 uL Lamp1-PE antibody buffer (PBS Ca^++/Mg^++ containing 2% final BSA with 80 uM final Dynasore and 1:800 final dilution of Lamp 1-PE labeled antibody). After a 45 min antibody incubation on ice, 25 μL of sytox green was added (I drop/mL buffer), and each well was mixed and incubated for an additional 15 min on ice. After the 15 min sytox green incubation, 100 μL of ice-cold buffer (PBS Ca^++/Mg^++ containing 2% final BSA and 80 uM final Dynasore) was added and cells were pelleted for 5 min at 400×g. The buffer was removed and each sample was resuspended in 100 uL of ice-cold buffer (PBS Ca^++/Mg^++ containing 2% final BSA and 80 μM final Dynasore). FACs gating strategy: FACS analyze for sytox green (A488) and Lamp1-PE (DsRed). First gate against FSC-A/SSC-A to find non-fragmented or ‘live’ THP-1 cells. Next gate against FITC-A/FSC-A to omit sytox green positive cells. Then gate for FSC-A/FSC-H to remove any doublet cells. The last gate was a histogram for PE. The statistics for ‘count’ and ‘geometric mean fluorescence intensity’ (gWFI) for PE were repoted on the last gate.
Compounds having an activity designated as “++++” provided an exocytosis readout of ≤0.50 μM; compounds having an activity designated as “+++” provided an exocytosis readout of 0.51-1.00 μM; compounds having an activity designated as “++” provided an exocytosis readout of 1.01-5.00 μM; and compounds having an activity designated as “+” provided an exocytosis readout of ≥5.01 μM

| Compound | EC50 [µM] |
| --- | --- |
| O=C(Nc1cccnc1)N1CCC2(CC1)CN(S(=O)(=O)c1ccc(C(F)F)cc1)c1ccccc12 [Compound I-198, 1-((4-(difluoromethyl)phenyl)sulfonyl)-N-(pyridin-3-yl)spiro[indoline-3,4′-piperidine]-1′-carboxamide] | ≥ 5.01 |
| CN(C)S(=O)(=O)c1ccc(S(=O)(=O)N2CC3(CCN(Cc4ccccc4)CC3)c3c(F)cccc32)cc1 [Compound I-155, 4-((1′-benzyl-4-fluorospiro[indoline-3,4′-piperidin]-1-yl)sulfonyl)-N,N-dimethylbenzenesulfonamide] | ≤ 0.5 |
| O=C(NCc1ccncc1)C1CCC2(CC1)CN(S(=O)(=O)c1ccc(C(F)F)cc1)c1ccccc12 (centres unmarked) [Compound I-233, 1′-((4-(difluoromethyl)phenyl)sulfonyl)-N-(pyridin-4-ylmethyl)spiro[cyclohexane-1,3′-indoline]-4-carboxamide] | ≥ 5.01 |
| O=C(C1CCC2(CC1)CN(S(=O)(=O)c1ccc(C(F)F)cc1)c1ccccc12)N1CCC(F)(F)CC1 (centres unmarked) [Compound I-239, (1′-((4-(difluoromethyl)phenyl)sulfonyl)spiro[cyclohexane-1,3′-indolin]-4-yl)(4,4-difluoropiperidin-1-yl)methanone] | ≥ 5.01 |
| O=C(NC1CCS(=O)(=O)CC1)N1CCC2(CC1)CN(S(=O)(=O)c1ccc(C(F)F)cc1)c1ccccc12 [Compound I-224, 1-((4-(difluoromethyl)phenyl)sulfonyl)-N-(1,1-dioxidotetrahydro-2H-thiopyran-4-yl)spiro[indoline-3,4′-piperidine]-1′-carboxamide] | ≥ 5.01 |
| O=C(COC1CCOC1)N1CCC2(CC1)CN(S(=O)(=O)c1ccc(C(F)F)cc1)c1ccccc12 (centres unmarked) [Compound I-254, 1-(1-((4-(difluoromethyl)phenyl)sulfonyl)spiro[indoline-3,4′-piperidin]-1′-yl)-2-((tetrahydrofuran-3-yl)oxy)ethan-1-one] | ≥ 5.01 |
| Cc1cc(CNC(=O)N2CCC3(CC2)CN(S(=O)(=O)c2ccc(C(F)F)cc2)c2ccccc23)no1 [Compound I-211, 1-((4-(difluoromethyl)phenyl)sulfonyl)-N-((5-methylisoxazol-3-yl)methyl)spiro[indoline-3,4′-piperidine]-1′-carboxamide] | ≥ 5.01 |
| Cc1nn(C)c(C)c1NC(=O)N1CCC2(CC1)CN(S(=O)(=O)c1ccc(C(F)F)cc1)c1ccccc12 [Compound I-217, 1-((4-(difluoromethyl)phenyl)sulfonyl)-N-(1,3,5-trimethyl-1H-pyrazol-4-yl)spiro[indoline-3,4′-piperidine]-1′-carboxamide] | ≥ 5.01 |
| O=C(C1CCC2(CC1)CN(S(=O)(=O)c1ccc(C(F)F)cc1)c1ccccc12)N1CCCC1 (centres unmarked) [Compound I-237, (1′-((4-(difluoromethyl)phenyl)sulfonyl)spiro[cyclohexane-1,3′-indolin]-4-yl)(pyrrolidin-1-yl)methanone] | ≥ 5.01 |
| O=C(NCc1cccnc1)C1CCC2(CC1)CN(S(=O)(=O)c1ccc(C(F)F)cc1)c1ccccc12 (centres unmarked) [Compound I-232, 1′-((4-(difluoromethyl)phenyl)sulfonyl)-N-(pyridin-3-ylmethyl)spiro[cyclohexane-1,3′-indoline]-4-carboxamide] | ≥ 5.01 |
| CN(C(=O)C1CCC2(CC1)CN(S(=O)(=O)c1ccc(C(F)F)cc1)c1ccccc12)c1ccnn1C (centres unmarked) [Compound I-243, 1′-((4-(difluoromethyl)phenyl)sulfonyl)-N-methyl-N-(1-methyl-1H-pyrazol-5-yl)spiro[cyclohexane-1,3′-indoline]-4-carboxamide] | ≥ 5.01 |

More lines, now with the values ahead:

| EC50 [µM] | Compound |
| --- | --- |
| ≥ 5.01 | O=C(NC1CCOCC1)N1CCC2(CC1)CN(S(=O)(=O)c1ccc(C(F)F)cc1)c1ccccc12 [Compound I-205, 1-((4-(difluoromethyl)phenyl)sulfonyl)-N-(tetrahydro-2H-pyran-4-yl)spiro[indoline-3,4′-piperidine]-1′-carboxamide] |
| ≥ 5.01 | CCn1cc(NC(=O)N2CCC3(CC2)CN(S(=O)(=O)c2ccc(C(F)F)cc2)c2ccccc23)cn1 [Compound I-207, 1-((4-(difluoromethyl)phenyl)sulfonyl)-N-(1-ethyl-1H-pyrazol-4-yl)spiro[indoline-3,4′-piperidine]-1′-carboxamide] |
| ≥ 5.01 | Cn1cc(CNC(=O)N2CCC3(CC2)CN(S(=O)(=O)c2ccc(C(F)F)cc2)c2ccccc23)cn1 [Compound I-209, 1-((4-(difluoromethyl)phenyl)sulfonyl)-N-((1-methyl-1H-pyrazol-4-yl)methyl)spiro[indoline-3,4′-piperidine]-1′-carboxamide] |
| ≥ 5.01 | O=C(NC1CC(F)(F)C1)N1CCC2(CC1)CN(S(=O)(=O)c1ccc(C(F)F)cc1)c1ccccc12 [Compound I-206, N-(3,3-difluorocyclobutyl)-1-((4-(difluoromethyl)phenyl)sulfonyl)spiro[indoline-3,4′-piperidine]-1′-carboxamide] |
| ≥ 5.01 | O=C(CCC1CCOC1)N1CCC2(CC1)CN(S(=O)(=O)c1ccc(C(F)F)cc1)c1ccccc12 (centres unmarked) [Compound I-253, 1-(1-((4-(difluoromethyl)phenyl)sulfonyl)spiro[indoline-3,4′-piperidin]-1′-y1)-3-(tetrahydrofuran-3-yl)propan-1-one] |
| ≥ 5.01 | O=S(=O)(c1ccc(C(F)F)cc1)N1CC2(CCC(F)(F)CC2)c2ccccc21 [Compound I-138, 1′-[4-(difluoromethyl)benzenesulfonyl]-4,4-difluoro-1′,2′-dihydrospiro[cyclohexane-1,3′-indole]] |
| ≥ 5.01 | O=C(NC1CC1)N1CCC2(CC1)CN(S(=O)(=O)c1ccc(C(F)F)cc1)c1ccccc12 [Compound I-142, N-cyclopropyl-1-[4-(difluoromethyl)benzenesulfonyl]-1,2-dihydrospiro[indole-3,4′-piperidine]-1′-carboxamide] |
| ≥ 5.01 | O=C(CC1CCCO1)N1CCC2(CC1)CN(S(=O)(=O)c1ccc(C(F)F)cc1)c1ccccc12 (centres unmarked) [Compound I-256, 1-(1-((4-(difluoromethyl)phenyl)sulfonyl)spiro[indoline-3,4′-piperidin]-1′-y1)-2-(tetrahydrofuran-2-yl)ethan-1-one] |
| 1.01 to 5 | Cn1cc(COC(=O)N2CCC3(CC2)CN(S(=O)(=O)c2ccc(C(F)F)cc2)c2ccccc23)cn1 [Compound I-176] |
| ≥ 5.01 | O=C(NCC(F)F)N1CCC2(CC1)CN(S(=O)(=O)c1ccc(C(F)F)cc1)c1ccccc12 [Compound I-194, N-(2,2-difluoroethyl)-1-((4-(difluoromethyl)phenyl)sulfonyl)spiro[indoline-3,4′-piperidine]-1′-carboxamide] |
| 1.01 to 5 | O=C(OCc1cnoc1)N1CCC2(CC1)CN(S(=O)(=O)c1ccc(C(F)F)cc1)c1ccccc12 [Compound I-173, isoxazol-4-ylmethyl 1-((4-(difluoromethyl)phenyl)sulfonyl)spiro[indoline-3,4′-piperidine]-1′-carboxylate] |
| ≥ 5.01 | Cn1cnc(COC(=O)N2CCC3(CC2)CN(S(=O)(=O)c2ccc(C(F)F)cc2)c2ccccc23)c1 [Compound I-172, (1-methyl-1H-imidazol-4-yl)methyl 1-((4-(difluoromethyl)phenyl)sulfonyl)spiro[indoline-3,4′-piperidine]-1′-carboxylate] |
| ≥ 5.01 | CCn1cc(CNC(=O)C2CCC3(CC2)CN(S(=O)(=O)c2ccc(C(F)F)cc2)c2ccccc23)cn1 (centres unmarked) [Compound I-241, 1′-((4-(difluoromethyl)phenyl)sulfonyl)-N-((1-ethyl-1H-pyrazol-4-yl)methyl)spiro[cyclohexane-1,3′-indoline]-4-carboxamide] |
| ≤ 0.5 | O=C(OCc1ccccc1)N1CCC2(CC1)CN(S(=O)(=O)c1ccc3c(c1)COC3)c1ccccc12 [Compound I-183, benzyl 1-((1,3-dihydroisobenzofuran-5-yl)sulfonyl)spiro[indoline-3,4′-piperidine]-1′-carboxylate] |
| 1.01 to 5 | O=C(CCC(F)(F)F)N1CCC2(CC1)CN(S(=O)(=O)c1ccc(C(F)F)cc1)c1ccccc12 [Compound I-251, 1-(1-((4-(difluoromethyl)phenyl)sulfonyl)spiro[indoline-3,4′-piperidin]-1′-y1)-4,4,4-trifluorobutan-1-one] |
